The record followed here is patent publication US20260234211A1, “POLYPEPTIDE HAVING MODIFIED STRUCTURE AND USE THEREOF” (Guangdong Raynovent Biotech Co., Ltd., priority 2023, published 2026).

Numbered stars: 1 amine (or outer) side, 2 acyl side, 3 side chain; on linkers, the order of the positions; unused ones are H or OH. Bridge positions count the residues as written; N and C are the ends. Square brackets hold non-standard residues; d marks the D form. Peptide text beside a SMILES is read from it. X1 = O=C(O)CCCCCCCCCCCCCCCCCCC(=O)N[C@@H](CCC(=O)NCCOCCOCC(=O)NCCCC[C@H](N[*:2])C(=O)[*:1])C(=O)O; αMeL = CC(C)C[C@](C)(N)C(=O)O; Aib = CC(C)(N)C(=O)O Some results are limits rather than exact numbers.

Series [1] is described as follows: Metabolic stability in human kidney S9. Type of series: in vitro ADME. The settings on record: human, s9. Here is the method:
The metabolic stability of the compounds in human kidney was evaluated to determine whether the drugs would be degraded by metabolic enzymes in the kidney to affect the efficacies and pharmacokinetics. 1. Relevant solutions were formulated. 2. a) With cofactors (NADPH & UDPGA): NADPH and UDPGA were added during the incubation. […] H2O was added into the culture solution. The final concentration of KS9 Fractions was 1 mg/mL. The mixture was pre-heated at 37° C. for 10 min. […] In this study, 7-hydroxy-coumarin and Raloxifene were used as the positive control. The final concentration of the positive control compounds was 0.2 μM, and the final concentration of the test compound was 1 μM. The culture solution was incubated in water bath at 37° C. 4. At 0.5, 5, 15, 30 and 60 min, volume aliquots were taken from the reaction solution and the reaction was stopped by adding acetonitrile. The samples were centrifuged for 30 min. The supernatant was taken and mixed with ultrapure water for subsequent LC-MS/MS analysis. 5. Data analysis: All calculation was conducted using Microsoft Excel. Peak areas were determined and slope values were calculated based on the extracted ion chromatograms.

For another series, the target named is T1, GLP-1R (Homo sapiens, UniProt P43220).
T1 construct: host or cells: HEK293
As to the kind of experiment: In vitro GLP-1R agonistic activity test (cAMP, HEK293 cell line). Type of series: cell-based. The settings on record: cAMP, HEK293 cells expressing GLP-1R; read-out: GLP-1 EC50. Here is the method:
(§1) The cell lines were constructed by Pharmaron Inc. See details in the table below.
(§2) The test compounds were diluted at a 5-fold dilution factor in 10 points, starting from an initial concentration of 200 nM.
(§3) 1) The cell lines were cultured respectively in complete medium at 37° C. and 5% CO2.
(§4) 1) Eu-cAMP tracer was freeze-thawed and diluted 50 fold with detection buffer; and Ulight-anti-cAMP was freeze-thawed and diluted 150 fold with detection buffer.
(§5) 3) 10 μL of Eu-cAMP tracer was added and then 10 μL of Uligh-anti-cAMP was added into experimental wells respectively.
(§6) 4) The reaction plate was centrifuged at 200 g at room temperature for 30 s and left for stand at 25° C. for 1 h.

A further series concerns the target T2, GCGR (Homo sapiens, UniProt P47871).
T2 construct: host or cells: HEK293
Description: In vitro GCGR agonistic activity test (cAMP, HEK293 cell line). Type of series: cell-based. Particulars: cAMP, HEK293 cells expressing GCGR; read-out: GCG EC50. Here is the method:
as §1, §2, §3
2) After digestion with TrypLE, the cells were re-suspended in experimental buffer respectively, and inoculated in a CulturPlate-384 cell culture plate at a density of 2000 cells/well and at a volume of 15 μL/well.
as §4
2) 5 μL of the test compounds were added respectively into experimental wells of the CulturPlate-384 cell culture plate, which was centrifuged at 200 g for 30 s, and left for stand at 37° C. for 30 min.
as §5, §6
5) Envision 2105 was used to collect data, with excitation light at 340 nm and emission light at 665 nm and 615 nm.

T1 sequence (P43220 24-463, species assumed): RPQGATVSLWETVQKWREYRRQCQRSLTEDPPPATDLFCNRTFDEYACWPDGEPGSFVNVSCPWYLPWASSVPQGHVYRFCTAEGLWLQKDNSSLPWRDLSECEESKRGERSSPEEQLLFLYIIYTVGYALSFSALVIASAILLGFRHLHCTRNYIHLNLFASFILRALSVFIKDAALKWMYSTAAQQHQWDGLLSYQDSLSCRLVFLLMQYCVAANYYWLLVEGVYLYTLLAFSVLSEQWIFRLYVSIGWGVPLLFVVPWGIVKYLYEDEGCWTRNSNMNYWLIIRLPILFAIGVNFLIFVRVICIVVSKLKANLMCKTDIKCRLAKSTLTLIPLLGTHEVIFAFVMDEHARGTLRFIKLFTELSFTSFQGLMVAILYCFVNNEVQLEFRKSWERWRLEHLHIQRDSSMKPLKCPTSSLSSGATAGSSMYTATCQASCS
T2 sequence (P47871 26-477, species assumed): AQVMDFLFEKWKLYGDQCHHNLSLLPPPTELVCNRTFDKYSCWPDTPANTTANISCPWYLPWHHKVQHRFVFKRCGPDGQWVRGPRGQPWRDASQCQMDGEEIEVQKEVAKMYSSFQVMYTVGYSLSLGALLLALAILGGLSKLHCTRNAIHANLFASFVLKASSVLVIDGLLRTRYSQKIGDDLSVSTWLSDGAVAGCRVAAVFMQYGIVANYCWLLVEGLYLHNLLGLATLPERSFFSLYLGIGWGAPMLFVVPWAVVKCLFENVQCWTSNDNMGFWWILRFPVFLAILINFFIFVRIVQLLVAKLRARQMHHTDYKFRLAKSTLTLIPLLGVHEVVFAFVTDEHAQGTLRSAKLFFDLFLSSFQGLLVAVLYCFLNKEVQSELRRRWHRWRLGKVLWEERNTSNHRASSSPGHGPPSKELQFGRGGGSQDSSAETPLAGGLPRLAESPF

In series [1], `CC[C@H](C)[C@H](NC(=O)[C@H](Cc1ccccc1)NC(=O)[C@@H]1CCC(=O)N[C@@H](CCCCNC(=O)COCCOCCNC(=O)CC[C@H](NC(=O)CCCCCCCCCCCCCCCCCCC(=O)O)C(=O)O)C(=O)NCCCC[C@H](NC(=O)[C@H](CCCCN)NC(=O)[C@H](CC(=O)O)NC(=O)[C@H](CC(C)C)NC(=O)[C@](C)(CC(C)C)NC(=O)[C@@H](NC(=O)[C@H](CO)NC(=O)[C@H](Cc2ccc(O)cc2)NC(=O)[C@H](CC(=O)O)NC(=O)[C@H](CO)NC(=O)[C@@H](NC(=O)[C@H](Cc2ccccc2)NC(=O)[C@@H](NC(=O)CNC(=O)[C@H](CCC(N)=O)NC(=O)C(C)(C)NC(=O)[C@@H](N)Cc2ccc(O)cc2)[C@@H](C)O)[C@@H](C)O)[C@@H](C)CC)C(=O)N[C@@H](C)C(=O)N[C@@H](CCC(N)=O)C(=O)NC(C)(C)C(=O)N1)C(=O)N[C@@H](CCC(=O)O)C(=O)N[C@@H](Cc1ccc(O)cc1)C(=O)N[C@@H](CC(C)C)C(=O)N[C@@H](CC(C)C)C(=O)N[C@@H](CCC(=O)O)C(=O)NCC(=O)NCC(=O)N1CCC[C@H]1C(=O)N[C@@H](CO)C(=O)N[C@@H](CO)C(=O)NCC(=O)N[C@@H](C)C(=O)N1CCC[C@H]1C(=O)N1CCC[C@H]1C(=O)N1CCC[C@H]1C(=O)N[C@@H](CO)C(N)=O` [Example 10, YAibQGT FTSDY SIα- MeLLD K^1KAQAib ^1EFIEY LLEGG PSSGA PPPS-NH2 (SEQ ID NO: 16)] (H-Y[Aib]QGTFTSDYSI[αMeL]LDKKAQ[Aib]EFIEYLLEGGPSSGAPPPS-NH2; linker 17-21 via X1 (inferred); N-terminus assumed) returned a half-life at 1 μM of over 3.08 h and a microsomal CLint at 1 μM of under 3.75 µL/min/mg. In addition, the EC50 on GLP-1R came out at 9 pM.

As to `CC[C@H](C)[C@H](NC(=O)[C@H](Cc1ccccc1)NC(=O)[C@H](C)NC(=O)C(C)(C)NC(=O)[C@H](CCC(N)=O)NC(=O)[C@H](C)NC(=O)[C@@H]1CCCCNC(=O)CN(C(=O)COCCOCCNC(=O)CC[C@H](NC(=O)CCCCCCCCCCCCCCCCCCC(=O)O)C(=O)O)CC(=O)NCCCC[C@H](NC(=O)[C@](C)(CC(C)C)NC(=O)[C@@H](NC(=O)[C@H](CO)NC(=O)[C@H](Cc2ccc(O)cc2)NC(=O)[C@H](CC(=O)O)NC(=O)[C@H](CO)NC(=O)[C@@H](NC(=O)[C@H](Cc2ccccc2)NC(=O)[C@@H](NC(=O)CNC(=O)[C@H](CCC(N)=O)NC(=O)C(C)(C)NC(=O)[C@@H](N)Cc2ccc(O)cc2)[C@@H](C)O)[C@@H](C)O)[C@@H](C)CC)C(=O)N[C@@H](CC(=O)O)C(=O)N[C@@H](CCCCN)C(=O)N1)C(=O)N[C@@H](CCC(N)=O)C(=O)N[C@@H](Cc1ccc(O)cc1)C(=O)N[C@@H](CC(C)C)C(=O)N[C@@H](CC(C)C)C(=O)N[C@@H](CCC(=O)O)C(=O)NCC(=O)NCC(=O)N1CCC[C@H]1C(=O)N[C@@H](CO)C(=O)N[C@@H](CO)C(=O)NCC(=O)N[C@@H](C)C(=O)N1CCC[C@H]1C(=O)N1CCC[C@H]1C(=O)N1CCC[C@H]1C(=O)N[C@@H](CO)C(N)=O` [Example 42, YAibQGT FTSDY SIα- MeL^1KD K^1KAQAib AFIQY LLEGG PSSGA PPPS-NH2 (SEQ ID NO: 39)], the figures for the EC50 at GLP-1R and at GCGR were 7 pM and 25 pM, respectively.
